# Test results from publication PMC5844530, “Fosmetpantotenate (RE-024), a phosphopantothenate replacement therapy for pantothenate kinase-associated neurodegeneration: Mechanism of action and efficacy in nonclinical models” (PLoS ONE, 2018).
# Several values for one entry are separate records, joined by “and”; a condition that tells them apart may be missing. Equal values may be shown once.
# How the values were obtained:
# [1] = Pharmacokinetics in whole blood, cynomolgus monkeys; details: blood; for AUC: single PO fosmetpantotenate 300 mg/kg, mean (individual values), N = 2, analyte = label; for Fosmetpantotenate Mean Conc. / Fosmetpantotenate blood concentration, Cyno #1 / Fosmetpantotenate blood concentration, Cyno #2 / concentration at 0.083 h / concentration at 0.167 h / concentration at 0.333 h / concentration at 0.5 h / concentration at 1 h / concentration at 2 h / concentration at 4 h: fosmetpantotenate 300 mg/kg oral; for concentration at 0.083 h / concentration at 0.167 h / concentration at 0.333 h / concentration at 0.5 h / concentration at 1 h / concentration at 2 h / concentration at 4 h: male
# Procedure: (§1) The whole blood samples (0.5 mL) were collected into syringes that were prefilled with 2.5 mL of ice-cold 0.1% formic acid in acetonitrile. The volume ratio of the whole blood to 0.1% formic acid in acetonitrile was 1/5 (v/v). Samples were frozen (-70°C) until analyzed by LC-MS/MS.
# (§2) Standard curves and quality control (QC) samples were prepared fresh on the day of analysis by serial dilution of the standard mixture in quenched whole blood (1 part of blood to 5 parts of 0.1% formic acid in acetonitrile) and centrifuged. […] The frozen study samples were thawed in an ice/water bath and centrifuged. Supernatant (50 μL) from standards, QC samples, and study samples was transferred to a 96-well plate and dried completely under nitrogen. The dried residues were reconstituted with 100 μL of 0.1% formic acid in water containing internal standard (5 ng/mL of ^15N/^13C3-RE-024-02) and analyzed by LC-MS/MS.
# (§3) LC-MS/MS analysis for blood pharmacokinetic samples: Samples were analyzed using an Agilent 1100 binary pump (Agilent Technologies, Santa Clara, CA, USA), connected to an AB Sciex API 6500 mass spectrometer (SCIEX, Framingham, MA, USA). An electrospray ionization source was used, scanning in the positive mode. […] The chromatography column was a Varian Metasil AQ 120–5 C18 column, 5 μm, 50 x 2.00 mm (Part No. A0530050X020) at ambient temperature, with a 0.5 mL/min flow rate and a 20 μL injection volume. Mobile phase (A) consisted of 0.1% formic acid in water; while mobile phase (B) consisted of 0.1% formic acid in acetonitrile:water (9:1, v/v).
# (§4) Quantitation of in vivo samples: Peak areas were integrated using Analyst software (AB Sciex, Concord, Ontario, Canada). […] Calibration standards (at a minimum 7 per curve) were fit by linear regression with (1/x^2) weighting. QC samples were used (triplicate) at 3 concentrations for all tandem mass spectrometry (MS/MS) runs.
# (§5) Pharmacokinetic calculations: PK analysis was performed using Phoenix WinNonlin®, Build 6.3.0.395 (Certara, Princeton, NJ, USA) using a non-compartmental model (PO dose = model 200 for extravascular dosing). […] Post-dose concentrations below the limit of quantitation (BLQ) were omitted from calculation.
# [2] = Pharmacokinetics in whole blood, CD-1 mice; details: blood
# Procedure: as §1, §2, §3, §4, §5
# [3] = male cynomolgus monkeys, 0.033 hr
# [4] = cynomolgus monkey, in vivo, 300 mg/kg, Fosmetpantotenate Mean Conc., male cynomolgus monkeys
# [5] = cynomolgus monkey, in vivo, 300 mg/kg, Fosmetpantotenate blood concentration, Cyno #1, male cynomolgus monkeys
# [6] = cynomolgus monkey, in vivo, 300 mg/kg, Fosmetpantotenate blood concentration, Cyno #2, male cynomolgus monkeys
smiles,measurement,setting,value
COC(=O)CCNC(=O)[C@H](O)C(C)(C)COP(=O)(N[C@@H](C)C(=O)OC)Oc1ccccc1 (mixture of isomers) [Fosmetpantotenate],AUC,[1],"34,400 (13000, 55800) nM*h"
same,AUC,"[1]; cynomolgus monkey, in vivo, po, 300 mg/kg, AUC",34 µM·h
same,Fosmetpantotenate Mean Conc.,"[1]; male cynomolgus monkeys, 0 hr",BQL
same,"Fosmetpantotenate blood concentration, Cyno #1","[1]; male cynomolgus monkeys, 0 hr",BQL
same,"Fosmetpantotenate blood concentration, Cyno #2","[1]; male cynomolgus monkeys, 0 hr",BQL
same,Fosmetpantotenate Mean Conc.,[1]; [3],BQL
same,"Fosmetpantotenate blood concentration, Cyno #1",[1]; [3],BQL
same,"Fosmetpantotenate blood concentration, Cyno #2",[1]; [3],BQL
same,Fosmetpantotenate Mean Conc.,"[1]; male cynomolgus monkeys, 8 hr",BQL
same,"Fosmetpantotenate blood concentration, Cyno #1","[1]; male cynomolgus monkeys, 8 hr",BQL
same,"Fosmetpantotenate blood concentration, Cyno #2","[1]; male cynomolgus monkeys, 8 hr",BQL
same,concentration at 0.083 h,[1]; [4],197 nM
same,concentration at 0.167 h,[1]; [4],906 nM
same,concentration at 0.333 h,[1]; [4],550 nM
same,concentration at 0.5 h,[1]; [4],376 nM
same,concentration at 1 h,[1]; [4],18700 nM
same,concentration at 2 h,[1]; [4],13200 nM
same,concentration at 4 h,[1]; [4],249 nM
same,concentration at 0.083 h,[1]; [5],41.9 nM
same,concentration at 0.167 h,[1]; [5],93.8 nM
same,concentration at 0.333 h,[1]; [5],128 nM
same,concentration at 0.5 h,[1]; [5],211 nM
same,concentration at 1 h,[1]; [5],9950 nM
same,concentration at 2 h,[1]; [5],3460 nM
same,concentration at 4 h,[1]; [5],231 nM
same,concentration at 0.083 h,[1]; [6],351 nM
same,concentration at 0.167 h,[1]; [6],1720 nM
same,concentration at 0.333 h,[1]; [6],972 nM
same,concentration at 0.5 h,[1]; [6],541 nM
same,concentration at 1 h,[1]; [6],27400 nM
same,concentration at 2 h,[1]; [6],22900 nM
same,concentration at 4 h,[1]; [6],267 nM
same,Conc.,"[2]; fosmetpantotenate 100 mg/kg PO, 0.033 hr, individual animals",6.22 nM and BQL and 218.78 ^(a) nM and 9.40 nM
same,Conc.,"[2]; fosmetpantotenate 100 mg/kg PO, 0.083 hr, individual animals",BQL and 1.94 nM
same,Conc.,"[2]; fosmetpantotenate 100 mg/kg PO, 0.167 hr, individual animals",BQL and 2.30 nM
same,Conc.,"[2]; fosmetpantotenate 100 mg/kg PO, 0.333 hr, individual animals",2.38 nM and 1.98 nM
same,Conc.,"[2]; fosmetpantotenate 100 mg/kg PO, 0.5 hr, individual animals",BQL and 1.43 nM
same,Conc.,"[2]; fosmetpantotenate 100 mg/kg PO, 1 hr, individual animals",BQL and 1.77 nM
same,Conc.,"[2]; fosmetpantotenate 100 mg/kg PO, 2 hr, individual animals",BQL
same,Mean Conc.,"[2]; fosmetpantotenate 100 mg/kg PO, 4 hr",BQL
same,Conc.,"[2]; fosmetpantotenate 100 mg/kg PO, 4 hr, individual animals",BQL
same,Mean Conc.,"[2]; fosmetpantotenate 100 mg/kg PO, 8 hr",BQL
same,Conc.,"[2]; fosmetpantotenate 100 mg/kg PO, 8 hr, individual animals",BQL
same,Conc.,"[2]; fosmetpantotenate 300 mg/kg PO, 0.033 hr, individual animals",1.41 nM and 49.95 nM and 66.65 nM and 2.76 nM
same,Conc.,"[2]; fosmetpantotenate 300 mg/kg PO, 0.083 hr, individual animals",5.50 nM and 4.59 nM and 18.72 nM and 28.96 nM
same,Conc.,"[2]; fosmetpantotenate 300 mg/kg PO, 0.167 hr, individual animals",1.62 nM and 1.56 nM and 3.71 nM and BQL
same,Conc.,"[2]; fosmetpantotenate 300 mg/kg PO, 0.333 hr, individual animals",1.22 nM and 1.07 nM and 1.14 nM
same,Conc.,"[2]; fosmetpantotenate 300 mg/kg PO, 0.5 hr, individual animals",1.14 nM and 1.24 nM
same,Conc.,"[2]; fosmetpantotenate 300 mg/kg PO, 1 hr, individual animals",BQL
same,Mean Conc.,"[2]; fosmetpantotenate 300 mg/kg PO, 2 hr",BQL
same,Conc.,"[2]; fosmetpantotenate 300 mg/kg PO, 2 hr, individual animals",BQL
same,Conc.,"[2]; fosmetpantotenate 300 mg/kg PO, 4 hr, individual animals",BQL
same,Mean Conc.,"[2]; fosmetpantotenate 300 mg/kg PO, 8 hr",BQL
same,Conc.,"[2]; fosmetpantotenate 300 mg/kg PO, 8 hr, individual animals",BQL
same,Fosmetpantotenate Conc.,"[2]; male CD-1 mice, fosmetpantotenate 700 mg/kg oral, 0.033 hr, individual animals, BQL <1.02 nM",61.71 nM and 230.17 nM and 51.34 nM and 195.45 nM
same,Fosmetpantotenate Conc.,"[2]; male CD-1 mice, fosmetpantotenate 700 mg/kg oral, 0.083 hr, individual animals, BQL <1.02 nM",24.28 nM and 3756.01(a) nM and 8.28 nM and 16.06 nM
same,Fosmetpantotenate Conc.,"[2]; male CD-1 mice, fosmetpantotenate 700 mg/kg oral, 0.167 hr, individual animals, BQL <1.02 nM",575.42 nM and 158.08 nM and 6.93 nM and 488.15 nM
same,Fosmetpantotenate Conc.,"[2]; male CD-1 mice, fosmetpantotenate 700 mg/kg oral, 0.333 hr, individual animals, BQL <1.02 nM",22.76 nM
same,Fosmetpantotenate Conc.,"[2]; male CD-1 mice, fosmetpantotenate 700 mg/kg oral, 0.5 hr, individual animals, BQL <1.02 nM",3.33 nM and 21.75 nM and 6.47 nM and 283.28 nM
same,Fosmetpantotenate Conc.,"[2]; male CD-1 mice, fosmetpantotenate 700 mg/kg oral, 1 hr, individual animals, BQL <1.02 nM",128.99 nM and 6.41 nM and 3.33 nM and 67.53 nM
same,Fosmetpantotenate Conc.,"[2]; male CD-1 mice, fosmetpantotenate 700 mg/kg oral, 2 hr, individual animals, BQL <1.02 nM",1.29 nM and 1.18 nM and 1.64 nM and 16.31 nM
same,Fosmetpantotenate Conc.,"[2]; male CD-1 mice, fosmetpantotenate 700 mg/kg oral, 4 hr, individual animals, BQL <1.02 nM",BQL
same,Fosmetpantotenate Conc.,"[2]; male CD-1 mice, fosmetpantotenate 700 mg/kg oral, 8 hr, individual animals, BQL <1.02 nM",BQL
same,Fosmetpantotenate Mean Conc.,"[2]; male CD-1 mice, fosmetpantotenate 700 mg/kg oral, 8 hr, mean, BQL <1.02 nM",BQL
same,concentration at 0.083 h,"[2]; male, CD-1, mouse, in vivo, 100 mg/kg, Conc., fosmetpantotenate 100 mg/kg PO, 0.083 hr, individual animals",2 nM
same,concentration at 0.167 h,"[2]; male, CD-1, mouse, in vivo, 100 mg/kg, Conc., fosmetpantotenate 100 mg/kg PO, 0.167 hr, individual animals",1.31 nM
same,concentration at 0.333 h,"[2]; male, CD-1, mouse, in vivo, 100 mg/kg, Conc., fosmetpantotenate 100 mg/kg PO, 0.333 hr, individual animals",1.31 nM
same,concentration at 0.5 h,"[2]; male, CD-1, mouse, in vivo, 100 mg/kg, Conc., fosmetpantotenate 100 mg/kg PO, 0.5 hr, individual animals",1.35 nM
same,concentration at 1 h,"[2]; male, CD-1, mouse, in vivo, 100 mg/kg, Conc., fosmetpantotenate 100 mg/kg PO, 1 hr, individual animals",1.26 nM
same,concentration at 2 h,"[2]; male, CD-1, mouse, in vivo, 100 mg/kg, Conc., fosmetpantotenate 100 mg/kg PO, 2 hr, individual animals",2.97 nM
same,concentration at 0.033 h,"[2]; male, CD-1, mouse, in vivo, 100 mg/kg, Mean Conc., fosmetpantotenate 100 mg/kg PO, 0.033 hr",7.81 nM
same,concentration at 0.083 h,"[2]; male, CD-1, mouse, in vivo, 100 mg/kg, Mean Conc., fosmetpantotenate 100 mg/kg PO, 0.083 hr",1.97 nM
same,concentration at 0.167 h,"[2]; male, CD-1, mouse, in vivo, 100 mg/kg, Mean Conc., fosmetpantotenate 100 mg/kg PO, 0.167 hr",1.8 nM
same,concentration at 0.333 h,"[2]; male, CD-1, mouse, in vivo, 100 mg/kg, Mean Conc., fosmetpantotenate 100 mg/kg PO, 0.333 hr",1.74 nM
same,concentration at 0.5 h,"[2]; male, CD-1, mouse, in vivo, 100 mg/kg, Mean Conc., fosmetpantotenate 100 mg/kg PO, 0.5 hr",1.39 nM
same,concentration at 1 h,"[2]; male, CD-1, mouse, in vivo, 100 mg/kg, Mean Conc., fosmetpantotenate 100 mg/kg PO, 1 hr",1.52 nM
same,concentration at 2 h,"[2]; male, CD-1, mouse, in vivo, 100 mg/kg, Mean Conc., fosmetpantotenate 100 mg/kg PO, 2 hr",2.97 nM
same,concentration at 0.333 h,"[2]; male, CD-1, mouse, in vivo, 300 mg/kg, Conc., fosmetpantotenate 300 mg/kg PO, 0.333 hr, individual animals",1.43 nM
same,concentration at 0.5 h,"[2]; male, CD-1, mouse, in vivo, 300 mg/kg, Conc., fosmetpantotenate 300 mg/kg PO, 0.5 hr, individual animals",1.83 nM
same,concentration at 1 h,"[2]; male, CD-1, mouse, in vivo, 300 mg/kg, Conc., fosmetpantotenate 300 mg/kg PO, 1 hr, individual animals",1.14 nM
